Assay results: US20150181873A1, “HERBICIDE-RESISTANT SUNFLOWER PLANTS, POLYNUCLEOTIDES ENCODING HERBICIDE=RESISTANT ACETO HYDROXY ACID SYNTHASE LARGE SUBUNIT PROTEINS, AND METHODS OF USE” (NIDERA S.A., priority 2013, published 2015)
“And” between values parts separate entries of the source, which are not always exact repeats. Equal values may be shown once.

How the values were obtained:
Format in all cases: in vivo, Helianthus annuus
[1] = tested on: sunflower hybrid TH6 (A122T); test: Greenhouse imazapir dose response, TH6; settings: 14 DAT
Method: (§1) A greenhouse study was conducted to quantify and contrast the imazapir sensivity of the mutants A122T and A205V in different genetic backgrounds at the whole plant level in sunflower. Seeds of the different sunflower lines that were used in this study were obtained under field conditions.
(§2) Seeds were sown in Petri dishes and, after germination, plantlets were transplanted to pots of 10 cm of diameter in a potting media consisting of equal parts of vermiculite, soil and sand. Plants were grown in a greenhouse under natural light conditions supplemented with 400 W sodium halide lamps to provide a 16 hrs daylength. Day/night temperatures were 25 and 20° C., respectively. At the V2 stage 10 plants of each genotype were randomly assigned to each treatment consisting of […] imazapir doses (0, 40, 80, 160, 240, 320, 400 and 480 g ai/ha), and a zero-time biomass determination. Experiment was arranged as a randomized block design with a full factorial (sunflower line×treatment) arrangement of treatments and 10 replications.
(§3) On the day of herbicide application ten plants of each genotype were cut at the cotyledonal node and dried at 60° C. for 48 hrs zero-time for dried weight determination. […] Height was determined as the distance between the cotyledonal node and the apex of each plant. For root biomass determination, each plant was taken from the pot and the potting media was washed out from the roots. Above ground biomass data from each line were converted to biomass accumulation after application by subtracting the appropriate average zero-time biomass from each sample. Dry biomass data were converted to percentages of the untreated control plants within each line to allow direct comparisons between groups.

[2] = tested on: sunflower restorer line GIM 5-6 (A122T); test: Greenhouse imazapir dose response, GIM 5-6; settings: GIM5-6 (A122T), 14 DAT
Method: as §1, §2, §3

[3] = tested on: sunflower genotypes carrying the A205V mutation event; test: Greenhouse imazapir dose response, A205V genotypes together; settings: 14 DAT; for biomass accumulation, Dif with control / plant height, Dif with Control / root dry weight, Dif with control: A205V mean; for biomass accumulation, % of untreated, Mean / root dry weight, % of untreated, Mean / plant height, % of untreated, Mean: six A205V genotypes; for Phytotoxicity Index, Mean: three A205V genotypes
Method: as §1, §2, §3

[4] = tested on: sunflower line GIM 5-7 (A205V); test: Greenhouse imazapir dose response, GIM 5-7; settings: GIM5-7 (A205V), 14 DAT
Method: as §1, §2, §3

CC(C)C1(C)N=C(c2ncccc2C(=O)O)NC1=O (stereo not drawn) [Imazapyr, imazapyr]
Phytotoxicity Index ([1]; 0.5x (40 g ai/ha)): 0.5 | biomass accumulation, % of untreated ([1]; 0.5x (40 g ai/ha)): 100% | plant height, % of untreated ([1]; 0.5x (40 g ai/ha)): 99.2% | root dry weight, % of untreated ([1]; 0.5x (40 g ai/ha)): 100% | Phytotoxicity Index ([1]; 1x (80 g ai/ha)): 0.5 | biomass accumulation, % of untreated ([1]; 1x (80 g ai/ha)): 97.2% | plant height, % of untreated ([1]; 1x (80 g ai/ha)): 98.6% | root dry weight, % of untreated ([1]; 1x (80 g ai/ha)): 98.1% | Phytotoxicity Index ([1]; 2x (160 g ai/ha)): 0.5 | biomass accumulation, % of untreated ([1]; 2x (160 g ai/ha)): 97.9% | plant height, % of untreated ([1]; 2x (160 g ai/ha)): 100.3% | root dry weight, % of untreated ([1]; 2x (160 g ai/ha)): 96.2% | Phytotoxicity Index ([1]; 3x (240 g ai/ha)): 0.5 | biomass accumulation, % of untreated ([1]; 3x (240 g ai/ha)): 98.2% | plant height, % of untreated ([1]; 3x (240 g ai/ha)): 99.6% | root dry weight, % of untreated ([1]; 3x (240 g ai/ha)): 79.3% | Phytotoxicity Index ([1]; 4x (320 g ai/ha)): 0.5 | biomass accumulation, % of untreated ([1]; 4x (320 g ai/ha)): 97.8% | plant height, % of untreated ([1]; 4x (320 g ai/ha)): 101.0% | root dry weight, % of untreated ([1]; 4x (320 g ai/ha)): 78.4% | Phytotoxicity Index ([1]; 5x (400 g ai/ha)): 0.5 | biomass accumulation, % of untreated ([1]; 5x (400 g ai/ha)): 85.1% | plant height, % of untreated ([1]; 5x (400 g ai/ha)): 87.0% | root dry weight, % of untreated ([1]; 5x (400 g ai/ha)): 85.8% | Phytotoxicity Index ([1]; 6x (480 g ai/ha)): 0.5 | biomass accumulation, % of untreated ([1]; 6x (480 g ai/ha)): 79.5% | plant height, % of untreated ([1]; 6x (480 g ai/ha)): 79.6% | root dry weight, % of untreated ([1]; 6x (480 g ai/ha)): 57.3% | biomass accumulation, % of untreated ([2]; 0.5x (40 g ai/ha)): 100.0% | plant height, % of untreated ([2]; 0.5x (40 g ai/ha)): 100.0% | root dry weight, % of untreated ([2]; 0.5x (40 g ai/ha)): 100% | biomass accumulation, % of untreated ([2]; 1x (80 g ai/ha)): 96.4% | plant height, % of untreated ([2]; 1x (80 g ai/ha)): 100.0% | root dry weight, % of untreated ([2]; 1x (80 g ai/ha)): 88.0% | biomass accumulation, % of untreated ([2]; 2x (160 g ai/ha)): 97.7% | plant height, % of untreated ([2]; 2x (160 g ai/ha)): 99.1% | root dry weight, % of untreated ([2]; 2x (160 g ai/ha)): 90.0% | biomass accumulation, % of untreated ([2]; 3x (240 g ai/ha)): 95.8% | plant height, % of untreated ([2]; 3x (240 g ai/ha)): 98.1% | root dry weight, % of untreated ([2]; 3x (240 g ai/ha)): 98.0% | biomass accumulation, % of untreated ([2]; 4x (320 g ai/ha)): 90.8% | plant height, % of untreated ([2]; 4x (320 g ai/ha)): 91.0% | root dry weight, % of untreated ([2]; 4x (320 g ai/ha)): 80.0% | biomass accumulation, % of untreated ([2]; 5x (400 g ai/ha)): 81.9% | plant height, % of untreated ([2]; 5x (400 g ai/ha)): 94.3% | root dry weight, % of untreated ([2]; 5x (400 g ai/ha)): 80.0% | biomass accumulation, % of untreated ([2]; 6x (480 g ai/ha)): 78.0% | plant height, % of untreated ([2]; 6x (480 g ai/ha)): 85.8% | root dry weight, % of untreated ([2]; 6x (480 g ai/ha)): 65.8% | biomass accumulation, Dif with control ([3]; 0.5x (40 g ai/ha)): 5.5% | plant height, Dif with Control ([3]; 0.5x (40 g ai/ha)): 5.6% | root dry weight, Dif with control ([3]; 0.5x (40 g ai/ha)): 12.8% | biomass accumulation, Dif with control ([3]; 1x (80 g ai/ha)): 17.8% | plant height, Dif with Control ([3]; 1x (80 g ai/ha)): 10.8% | root dry weight, Dif with control ([3]; 1x (80 g ai/ha)): 29.2% | biomass accumulation, Dif with control ([3]; 2x (160 g ai/ha)): 38.4% | plant height, Dif with Control ([3]; 2x (160 g ai/ha)): 30.8% | root dry weight, Dif with control ([3]; 2x (160 g ai/ha)): 49.4% | biomass accumulation, Dif with control ([3]; 3x (240 g ai/ha)): 52.4% | plant height, Dif with Control ([3]; 3x (240 g ai/ha)): 49.6% | root dry weight, Dif with control ([3]; 3x (240 g ai/ha)): 60.8% | biomass accumulation, Dif with control ([3]; 4x (320 g ai/ha)): 64.6% | plant height, Dif with Control ([3]; 4x (320 g ai/ha)): 66.3% | root dry weight, Dif with control ([3]; 4x (320 g ai/ha)): 68.9% | biomass accumulation, Dif with control ([3]; 5x (400 g ai/ha)): 67.6% | plant height, Dif with Control ([3]; 5x (400 g ai/ha)): 68.0% | root dry weight, Dif with control ([3]; 5x (400 g ai/ha)): 69.3% | biomass accumulation, Dif with control ([3]; 6x (480 g ai/ha)): 70.0% | root dry weight, Dif with control ([3]; 6x (480 g ai/ha)): 75.6% | plant height, Dif with Control ([3]; 6x (480 g ai/ha), listed as imazapir): 68.9% and 69.8% | biomass accumulation, % of untreated, Mean ([3]; 0.5x (40 g ai/ha)): 94.5% | root dry weight, % of untreated, Mean ([3]; 0.5x (40 g ai/ha)): 87.2% | biomass accumulation, % of untreated, Mean ([3]; 1x (80 g ai/ha)): 82.2% | root dry weight, % of untreated, Mean ([3]; 1x (80 g ai/ha)): 70.8% | biomass accumulation, % of untreated, Mean ([3]; 2x (160 g ai/ha)): 61.6% | plant height, % of untreated, Mean ([3]; 2x (160 g ai/ha)): 69.2% | root dry weight, % of untreated, Mean ([3]; 2x (160 g ai/ha)): 50.6% | biomass accumulation, % of untreated, Mean ([3]; 3x (240 g ai/ha)): 47.6% | plant height, % of untreated, Mean ([3]; 3x (240 g ai/ha)): 50.4% | root dry weight, % of untreated, Mean ([3]; 3x (240 g ai/ha)): 39.2% | biomass accumulation, % of untreated, Mean ([3]; 4x (320 g ai/ha)): 35.4% | plant height, % of untreated, Mean ([3]; 4x (320 g ai/ha)): 33.7% | root dry weight, % of untreated, Mean ([3]; 4x (320 g ai/ha)): 31.1% | biomass accumulation, % of untreated, Mean ([3]; 5x (400 g ai/ha)): 32.4% | plant height, % of untreated, Mean ([3]; 5x (400 g ai/ha)): 32.0% | root dry weight, % of untreated, Mean ([3]; 5x (400 g ai/ha)): 30.7% | biomass accumulation, % of untreated, Mean ([3]; 6x (480 g ai/ha)): 30.0% | plant height, % of untreated, Mean ([3]; 6x (480 g ai/ha)): 30.2% | root dry weight, % of untreated, Mean ([3]; 6x (480 g ai/ha)): 24.4% | Phytotoxicity Index, Mean ([3]; 0.5x (40 g ai/ha)): 0 | Phytotoxicity Index, Mean ([3]; 1x (80 g ai/ha)): 0 | Phytotoxicity Index, Mean ([3]; 2x (160 g ai/ha)): 2.2 | Phytotoxicity Index, Mean ([3]; 3x (240 g ai/ha)): 5.1 | Phytotoxicity Index, Mean ([3]; 4x (320 g ai/ha)): 7.4 | Phytotoxicity Index, Mean ([3]; 5x (400 g ai/ha)): 8.2 | Phytotoxicity Index, Mean ([3]; 6x (480 g ai/ha)): 8.2 | biomass accumulation, % of untreated ([4]; 0.5x (40 g ai/ha)): 92.9% | plant height, % of untreated ([4]; 0.5x (40 g ai/ha)): 79.1% | root dry weight, % of untreated ([4]; 0.5x (40 g ai/ha)): 79.2% | biomass accumulation, % of untreated ([4]; 1x (80 g ai/ha)): 75.1% | plant height, % of untreated ([4]; 1x (80 g ai/ha)): 76.7% | root dry weight, % of untreated ([4]; 1x (80 g ai/ha)): 56.3% | biomass accumulation, % of untreated ([4]; 2x (160 g ai/ha)): 55.1% | plant height, % of untreated ([4]; 2x (160 g ai/ha)): 57.7% | root dry weight, % of untreated ([4]; 2x (160 g ai/ha)): 40.6% | biomass accumulation, % of untreated ([4]; 3x (240 g ai/ha)): 45.6% | plant height, % of untreated ([4]; 3x (240 g ai/ha)): 55.3% | root dry weight, % of untreated ([4]; 3x (240 g ai/ha)): 40.2% | biomass accumulation, % of untreated ([4]; 4x (320 g ai/ha)): 31.8% | plant height, % of untreated ([4]; 4x (320 g ai/ha)): 27.3% | root dry weight, % of untreated ([4]; 4x (320 g ai/ha)): 34.0% | biomass accumulation, % of untreated ([4]; 5x (400 g ai/ha)): 34.2% | plant height, % of untreated ([4]; 5x (400 g ai/ha)): 37.2% | root dry weight, % of untreated ([4]; 5x (400 g ai/ha)): 48.5% | biomass accumulation, % of untreated ([4]; 6x (480 g ai/ha)): 36.8% | plant height, % of untreated ([4]; 6x (480 g ai/ha)): 30.0% | root dry weight, % of untreated ([4]; 6x (480 g ai/ha)): 43.1%
